Values of other authors, collected in patent US20170035783A1, “COMPOSITION FOR THE PREVENTION AND THERAPY OF TUMOR DISEASES” (SANOXSYS GMBH, priority 2014, published 2017).

System: breast cancer risk
Conditions: subcutaneous pellet, 2008-2010

## C[C@]12CC[C@H]3[C@@H](CCC4=CC(=O)CC[C@@]43C)[C@@H]1CC[C@@H]2O [testosterone alone, testosterone]
  breast cancer risk in pre- and postmenopausal women: reduce the breast cancer risk
